The values below come from ChEMBL document CHEMBL5725825, “Inhibitors of IRAK4 activity” (2017).

For this assay, the target named is T1, Interleukin-1 receptor-associated kinase 4 (Homo sapiens, UniProt Q9NWZ3).
T1 sequence (Q9NWZ3 whole entry): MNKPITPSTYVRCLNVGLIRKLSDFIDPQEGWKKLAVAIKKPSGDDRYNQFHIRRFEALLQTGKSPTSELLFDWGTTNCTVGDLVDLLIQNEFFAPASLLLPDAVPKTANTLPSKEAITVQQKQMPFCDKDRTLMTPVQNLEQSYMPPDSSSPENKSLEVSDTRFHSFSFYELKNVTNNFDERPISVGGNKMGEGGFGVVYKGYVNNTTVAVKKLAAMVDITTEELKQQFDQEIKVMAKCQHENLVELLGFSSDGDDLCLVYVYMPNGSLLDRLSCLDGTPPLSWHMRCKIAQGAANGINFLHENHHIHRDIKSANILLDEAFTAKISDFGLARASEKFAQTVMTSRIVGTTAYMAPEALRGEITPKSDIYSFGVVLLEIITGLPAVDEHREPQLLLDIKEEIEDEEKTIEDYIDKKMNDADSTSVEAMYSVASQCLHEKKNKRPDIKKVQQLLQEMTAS
In words: IMAP Technology: The kinase activity of IRAK4 is determined by its ability to catalyze the phosphorylation of a fluorescent polypeptide substrate. […] The reaction is initiated by the addition of ATP. After incubation for 30 minutes at 25° C., 60 μl of Progressive IMAP Reagent (Molecular Devices) is added to stop the reaction. Change in RP7030's FP is determined by a FP reader (Analyst HT, LJL BioSystems).

Usually IC50 stands for the midpoint of a concentration-inhibition curve. The low end stands for higher potency, the high end for lower potency. In turn, `Cn1cc(NC(=O)c2cccc(-c3ccnc(NCC4CC4)c3)c2)c(C(N)=O)n1` yielded an IC50 of 184 nM.
Turning to `Cn1cc(NC(=O)c2cccc(-c3ccnc(NCC4CC4)c3)n2)c(C(=O)N2CCOCC2)n1`, inhibition was half-maximal at 1830 nM (IC50).
